Test results reported in patent US20250387360A1, “Methods and Compositions for Treatment of Addiction” (University of Connecticut, priority 2024, published 2025).

Tested on: male C57BL/6J mice
Experiment: 4-day DID binge-like ethanol drinking with SCFA supplementation in drinking water
Type: in vivo, mouse
Conditions: for alcohol intake with SCFA supplement: 200 mM in drinking water 10 days, n=7 mice/group
Excerpt: Male C57BL/6J mice, (RRID: IMSR_JAX: 000664), aged 6-8 weeks, were obtained from Jackson Laboratories (ME, U.S.A) for the study. The mice were housed individually under a reversed 12-hours light/dark cycle, with lights off from […] to 7:00 am. A minimum acclimation period of 2 weeks was provided for all animals before they were randomly assigned to their respective groups. Mice had free access to food (Irradiated chow, Teklad global 18% protein rodent diet, 2918, Inotiv, WI, U.S.A) and deionized water to acclimate to the testing environment. Body weight and daily food and fluid intake were monitored and noted for all animal experiments.
A standard 4-day drinking in the dark (DID) model was used to evaluate binge-like ethanol drinking patterns in mice. A 20% v/v ethanol solution was prepared by diluting 190-proof ethyl alcohol (Sigma, MO, U.S.A) with deionized water. During days 1-3, the water bottles were temporarily removed during the dark cycle of the mice, and the mice were provided with a tube containing the 20% v/v ethanol solution for a duration of two hours. On day four, the assessment of binge-like ethanol consumption took place, where the mice were given access to the 20% v/v ethanol solution for a period of four hours. The volume of fluid in the tube (read to the closest 100 μL) was measured immediately upon placement, and at two hours and four hours into the test. Following the completion of the four hours test, approximately 100 μL of blood was collected through cardiac puncture after CO2 euthanasia. Blood samples were subjected to centrifugation at 10,000 rpm for 10 minutes. The determination of blood ethanol concentrations (BEC) was performed using an Analox AMI Analyzer (Analox Instruments, MA, U.S.A). The quantity of ethanol consumed was then calculated as grams per kilogram of the mouse's body weight.
All SCFA were used in sodium salt form. Briefly, sodium acetate (Sigma, MO, U.S.A), sodium butyrate (Sigma, MO, U.S.A), sodium valerate (Ambeed, IL, U.S.A), and sodium chloride (NaCl; Sigma, Mo, U.S.A) were prepared at 200 mM concentration freshly in drinking water every two days. These concentrations were chosen based on earlier studies conducted in mice [Qi Y., et al., Sodium acetate regulates milk fat synthesis through the activation of GPR41/GPR43 signaling pathway. Frontiers in nutrition 2023, 10:1098715; Daien C I, et al., Gut-derived acetate promotes B10 cells with anti-inflammatory effects. JCI insight 2021, 6 (7)]. All SCFA and NaCl solutions were pH verified to control for acidity effects on daily consumption. SCFAs were given to mice via oral drinking for 10 consecutive days before any experiment, and this regimen was maintained throughout the entire experiment.
General statistical analysis (non-microbiome and non-RNAseq analysis) were conducted using GraphPad Prism 8 (GraphPad, CA, USA, RRID:SCR_002798). For the calculation of ethanol consumption during the DID procedure, it was expressed as grams of ethanol per kilogram of body weight (g/kg body weight), where 20% ethanol intake was determined as follows: multiplying the drinking volume by the ethanol percentage within that volume and the density of ethanol, and then dividing this by the mouse's body weight in kilograms. Normality of data distributions was tested by Shapiro-Wilk test and by Q-Q plots. Levene's test was used to test equality of variances across groups. Unpaired Student's t-tests were used to compare behavioral testing, GABA levels, and histone acetylation measurements between the sodium valerate and NaCl groups. To evaluate the impact of antibiotic cocktail administration on ethanol consumption and BEC between the groups receiving Abx and PBS at baseline and after treatment, a mixed ANOVA test was employed, given repeated measures from the same mouse from the two time points. Similarly, mixed ANOVA tests were applied to compare various SCFA levels before and after Abx administration.

[1] = supplementation in drinking water, DID

**Q.** With `CC(=O)[O-].[Na+]` [sodium acetate, reference compound] as the compound, how does the “alcohol intake with SCFA supplement” value read?
**A.** no statistical changes

**Q.** With `CCCC(=O)[O-].[Na+]` [sodium butyrate, reference compound] as the compound, how does the “alcohol intake with SCFA supplement” value read?
**A.** no statistical changes

**Q.** Which results are given for `CCCCC(=O)O` [valeric acid]?
**A.** BEC (in words) [1]: significant reduction; ethanol consumption (in words) [1]: significant reduction
